# Reference: ChEMBL document CHEMBL5154782, “Discovery of Potent PROTACs Targeting EGFR Mutants through the Optimization of Covalent EGFR Ligands” (J Med Chem, 2022)
# The source made the active and inactive calls. The calls are words filed in the database; no cut-off is given here.
# How the values were obtained:
# [1] = biological target: T1, von Hippel-Lindau disease tumor suppressor/Epidermal growth factor receptor (Homo sapiens, UniProt P00533+P40337); experiment: Protac activity at VHL/EGFR deletion19 mutant in human PC9 cells assessed as induction of EGFR degradation; assay type: cell-based; conditions: pc-9
# T1 sequence (P00533 25-1210 limits assumed, stated change not applied): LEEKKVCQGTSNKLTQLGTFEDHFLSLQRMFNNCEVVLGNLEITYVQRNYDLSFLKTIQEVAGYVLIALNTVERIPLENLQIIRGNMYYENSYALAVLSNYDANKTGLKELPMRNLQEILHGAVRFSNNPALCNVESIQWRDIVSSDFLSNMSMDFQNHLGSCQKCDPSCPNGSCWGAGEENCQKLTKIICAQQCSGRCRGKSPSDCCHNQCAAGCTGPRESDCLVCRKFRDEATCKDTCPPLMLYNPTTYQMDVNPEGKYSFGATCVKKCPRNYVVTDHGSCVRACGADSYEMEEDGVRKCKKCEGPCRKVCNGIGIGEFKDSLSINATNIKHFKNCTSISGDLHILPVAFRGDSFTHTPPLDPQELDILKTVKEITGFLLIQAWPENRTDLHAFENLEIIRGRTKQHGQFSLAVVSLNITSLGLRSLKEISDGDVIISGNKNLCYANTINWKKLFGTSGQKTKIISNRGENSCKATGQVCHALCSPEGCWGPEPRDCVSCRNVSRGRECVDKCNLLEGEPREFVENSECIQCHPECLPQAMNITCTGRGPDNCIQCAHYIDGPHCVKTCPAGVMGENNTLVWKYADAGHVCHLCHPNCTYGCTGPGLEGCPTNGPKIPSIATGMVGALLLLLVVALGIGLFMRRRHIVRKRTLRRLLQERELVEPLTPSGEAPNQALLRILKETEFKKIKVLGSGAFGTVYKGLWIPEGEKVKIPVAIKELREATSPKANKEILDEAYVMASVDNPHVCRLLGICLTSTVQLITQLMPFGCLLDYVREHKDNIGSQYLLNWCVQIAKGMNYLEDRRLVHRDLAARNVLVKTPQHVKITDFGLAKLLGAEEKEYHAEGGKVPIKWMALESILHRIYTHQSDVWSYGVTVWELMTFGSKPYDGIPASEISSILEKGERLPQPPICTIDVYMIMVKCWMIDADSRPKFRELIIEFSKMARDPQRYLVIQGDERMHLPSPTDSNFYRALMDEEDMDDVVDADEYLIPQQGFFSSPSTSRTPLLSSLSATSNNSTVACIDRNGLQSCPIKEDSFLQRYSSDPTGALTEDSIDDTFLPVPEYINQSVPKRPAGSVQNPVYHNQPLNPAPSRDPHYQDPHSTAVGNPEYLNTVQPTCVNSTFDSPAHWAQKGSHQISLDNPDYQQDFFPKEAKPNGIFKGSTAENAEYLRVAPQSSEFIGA
# T1 sequence (P40337 whole entry, stated change not applied): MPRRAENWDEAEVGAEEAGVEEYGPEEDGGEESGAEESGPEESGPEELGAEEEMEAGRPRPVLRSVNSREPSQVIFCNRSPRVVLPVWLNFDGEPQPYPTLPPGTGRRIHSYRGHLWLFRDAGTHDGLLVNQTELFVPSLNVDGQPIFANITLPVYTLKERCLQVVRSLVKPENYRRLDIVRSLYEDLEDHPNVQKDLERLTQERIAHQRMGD
# NCI-H1975 [2] = experiment: Antiproliferative activity against human NCI-H1975 cells expressing EGFR L858R/T790M mutant assessed as inhibition of cell proliferation; assay type: functional, cell-based
# [3] = biological target: von Hippel-Lindau disease tumor suppressor/Epidermal growth factor receptor (Homo sapiens, UniProt P00533+P40337, T790M/L858R); experiment: Protac activity at VHL/EGFR L858R/T790M mutant in human NCI-H1975 cells assessed as induction of EGFR degradation; assay type: cell-based
# Chain of von Hippel-Lindau disease tumor suppressor/Epidermal growth factor receptor (Homo sapiens, UniProt P00533+P40337, T790M/L858R) (P00533 25-1210 T790M/L858R limits assumed, stated change not applied): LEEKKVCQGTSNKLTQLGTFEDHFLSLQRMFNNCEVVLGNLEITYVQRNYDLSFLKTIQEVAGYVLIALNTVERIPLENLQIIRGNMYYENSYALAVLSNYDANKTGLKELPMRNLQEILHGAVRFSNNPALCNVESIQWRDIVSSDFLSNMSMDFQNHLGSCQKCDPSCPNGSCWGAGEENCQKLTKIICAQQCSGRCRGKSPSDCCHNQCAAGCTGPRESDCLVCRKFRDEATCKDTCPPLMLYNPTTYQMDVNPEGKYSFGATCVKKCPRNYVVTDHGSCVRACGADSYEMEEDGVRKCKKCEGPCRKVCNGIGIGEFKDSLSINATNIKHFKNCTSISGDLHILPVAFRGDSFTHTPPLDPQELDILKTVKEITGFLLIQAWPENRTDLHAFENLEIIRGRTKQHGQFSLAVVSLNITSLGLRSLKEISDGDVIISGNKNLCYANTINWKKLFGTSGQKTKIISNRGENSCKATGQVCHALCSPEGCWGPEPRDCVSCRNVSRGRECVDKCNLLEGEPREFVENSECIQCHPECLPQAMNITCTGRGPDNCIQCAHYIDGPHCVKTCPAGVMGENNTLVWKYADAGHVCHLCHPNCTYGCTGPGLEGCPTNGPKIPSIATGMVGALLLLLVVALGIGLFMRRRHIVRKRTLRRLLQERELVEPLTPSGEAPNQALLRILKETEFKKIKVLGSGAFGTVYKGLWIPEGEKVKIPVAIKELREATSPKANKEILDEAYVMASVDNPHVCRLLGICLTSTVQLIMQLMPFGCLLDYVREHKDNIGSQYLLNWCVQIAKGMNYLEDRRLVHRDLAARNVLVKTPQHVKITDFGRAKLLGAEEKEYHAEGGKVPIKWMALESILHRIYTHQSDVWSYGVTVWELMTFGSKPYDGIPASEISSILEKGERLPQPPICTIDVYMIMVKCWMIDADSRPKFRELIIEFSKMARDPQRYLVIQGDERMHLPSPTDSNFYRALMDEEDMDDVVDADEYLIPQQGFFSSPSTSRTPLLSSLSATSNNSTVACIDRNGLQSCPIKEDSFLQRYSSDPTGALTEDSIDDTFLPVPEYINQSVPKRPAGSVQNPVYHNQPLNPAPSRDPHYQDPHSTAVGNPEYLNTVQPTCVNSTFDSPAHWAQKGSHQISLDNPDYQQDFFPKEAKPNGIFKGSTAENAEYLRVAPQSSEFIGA
# Chain of von Hippel-Lindau disease tumor suppressor/Epidermal growth factor receptor (Homo sapiens, UniProt P00533+P40337, T790M/L858R) (P40337 whole entry, stated change not applied): as the sequence (P40337 whole entry, stated change not applied) above
# [4] = system: von Hippel-Lindau disease tumor suppressor/Epidermal growth factor receptor (Homo sapiens), P00533+P40337 [UNDEFINED MUTATION]; experiment: Protac activity at VHL/EGFR/deletion19 in human HCC827 cells assessed as induction of EGFR degradation at 1 to 30 nM incubated for 24 hrs by Western blot analysis; assay type: cell-based; conditions: dose 1-30 nM
# Chain of von Hippel-Lindau disease tumor suppressor/Epidermal growth factor receptor (Homo sapiens), P00533+P40337 [UNDEFINED MUTATION] (P00533 whole entry, looked up, stated change not applied): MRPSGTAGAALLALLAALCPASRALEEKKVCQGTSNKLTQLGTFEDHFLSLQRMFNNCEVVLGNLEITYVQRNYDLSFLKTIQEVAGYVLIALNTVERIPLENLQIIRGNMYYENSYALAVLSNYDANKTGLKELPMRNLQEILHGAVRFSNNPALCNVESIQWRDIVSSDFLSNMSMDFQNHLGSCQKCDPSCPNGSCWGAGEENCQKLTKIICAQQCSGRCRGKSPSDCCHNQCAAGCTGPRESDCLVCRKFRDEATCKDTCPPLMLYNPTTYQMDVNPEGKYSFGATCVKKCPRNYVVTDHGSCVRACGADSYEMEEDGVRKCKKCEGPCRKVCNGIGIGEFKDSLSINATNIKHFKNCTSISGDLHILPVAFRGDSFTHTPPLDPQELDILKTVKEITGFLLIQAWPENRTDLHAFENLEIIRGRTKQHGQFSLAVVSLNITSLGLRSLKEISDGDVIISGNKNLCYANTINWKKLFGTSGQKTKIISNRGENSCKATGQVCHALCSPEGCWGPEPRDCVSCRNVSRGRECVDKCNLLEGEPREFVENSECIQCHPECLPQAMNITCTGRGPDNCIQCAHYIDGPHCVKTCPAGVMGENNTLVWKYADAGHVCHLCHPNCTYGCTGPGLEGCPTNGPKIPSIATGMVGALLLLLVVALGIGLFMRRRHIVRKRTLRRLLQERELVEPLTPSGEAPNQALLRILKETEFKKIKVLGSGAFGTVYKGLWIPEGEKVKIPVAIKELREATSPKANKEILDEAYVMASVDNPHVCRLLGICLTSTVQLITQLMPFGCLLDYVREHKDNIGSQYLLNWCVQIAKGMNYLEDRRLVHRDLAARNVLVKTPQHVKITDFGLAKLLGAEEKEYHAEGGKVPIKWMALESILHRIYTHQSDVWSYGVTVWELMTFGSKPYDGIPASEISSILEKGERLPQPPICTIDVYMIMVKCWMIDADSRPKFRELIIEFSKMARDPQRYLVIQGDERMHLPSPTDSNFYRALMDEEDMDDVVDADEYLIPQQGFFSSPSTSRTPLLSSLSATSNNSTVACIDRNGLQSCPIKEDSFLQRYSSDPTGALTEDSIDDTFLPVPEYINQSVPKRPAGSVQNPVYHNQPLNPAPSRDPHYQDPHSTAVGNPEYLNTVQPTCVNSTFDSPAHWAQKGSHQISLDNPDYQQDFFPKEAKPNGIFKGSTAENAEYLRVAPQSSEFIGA
# Chain of von Hippel-Lindau disease tumor suppressor/Epidermal growth factor receptor (Homo sapiens), P00533+P40337 [UNDEFINED MUTATION] (P40337 whole entry, looked up, stated change not applied): as the sequence (P40337 whole entry, stated change not applied) above
# NCI-H1975 [5] = experiment: Antiproliferative activity against human NCI-H1975 cells expressing EGFR L858R/T790M mutant assessed as inhibition of cell proliferation incubated for 72 hrs by MTT assay; assay type: functional, cell-based; conditions: NCI-H1975, 72 h
# HCC827 = experiment: Antiproliferative activity against human HCC827 cells expressing EGFR deletion19 mutant assessed as inhibition of cell proliferation incubated for 72 hrs by MTT assay; assay type: functional, cell-based; conditions: HCC827, 72 h
# [6] = biological target: T1, von Hippel-Lindau disease tumor suppressor/Epidermal growth factor receptor; experiment: Protac activity at VHL/EGFR deletion19 mutant in human HCC827 cells assessed as induction of EGFR degradation under starvation condition; assay type: cell-based
smiles,measurement,setting,value
C=CC(=O)Nc1cc2c(Nc3ccc(F)c(Cl)c3)ncnc2cc1OCCCN1CCN(C(=O)CCCCCCNc2cccc3c2C(=O)N(C2CCC(=O)NC2=O)C3=O)CC1 (configuration not stated),DC50,[1],100 nM
same,IC50,NCI-H1975 [2],26.5 nM
same,DC50,[3],< 30 nM
CCC(=O)N1CCC[C@H](n2c(Nc3ccccc3)nc3cnc(Nc4ccc(N5CCN(CCCCCCCC(=O)N[C@H](C(=O)N6C[C@H](O)C[C@H]6C(=O)N[C@@H](C)c6ccc(-c7scnc7C)cc6)C(C)(C)C)CC5)cc4)nc32)C1,Activity,[4],Active
same,IC50,NCI-H1975 [5],2900 nM
same,IC50,HCC827,5.39 nM
COc1cc2ncnc(Nc3ccc(F)c(Cl)c3)c2cc1OCCCN1CCN(C(=O)CCCCCCCCCC(=O)N[C@H](C(=O)N2C[C@H](O)C[C@H]2C(=O)NCc2ccc(-c3scnc3C)cc2)C(C)(C)C)CC1,DC50,[6],5 nM
